Values after ≈ are worked out from the molar mass of the structure shown. Values joined by “and” are separate entries in the source; they are usually repeats but may differ in a detail not shown here. Equal values may be shown once. “Also recorded” adds a separate entry of the source. Where a name gives a salt, the structure may show the parent alone. Read-outs that look alike come from different tables or passages of the source.
Key:
IdeR [1] = target: T1, IdeR (Mycobacterium tuberculosis, UniProt P9WMH1); assay: biochemical; conditions: EMSA
M. tuberculosis = assay: Resazurin microtiter assay (REMA) whole cell MIC90 in broth culture; assay type: cell-based, Mycobacterium tuberculosis; conditions: MB7H9 medium, Mean ± S.E., three experiments; for MIC90: Mycobacterium tuberculosis, read-out: MIC90 of compounds against M. tuberculosis
[2] = tested on: THP-1 (human monocytic macrophage cell line); assay: Cytotoxicity by REMA in THP-1; assay type: cell-based; conditions: for IC50: Homo sapiens, THP-1, 1-200 µg/ml, read-out: Inhibition in THP1 (IC50 in µg/ml); for Inhibition in THP1 (IC50 in µg/ml): 1-200 µg/ml
Experimental: (§1) The cytotoxicity of the compounds was determined by employing REMA using various mammalian cell lines such as THP-1 (human monocytic macrophage cell line), HEK (Human Embryonic Kidney cell line), MDCK (Madine darby canine kidney cell line) and HepG2 (Human hepatocellular carcinoma cell line). 1 × 10^4 cells/well were employed in a sterilized 96-well plate containing serial dilutions of compounds ranging from 1 µg/ml to 200 µg/ml concentration, in their respective media (RPMI for THP-1, DMEM for HEK and HepG2 and MEM for MDCK) with 10% fetal bovine serum and Antibiotic-Antimycotic mix (Invitrogen Corporation, Carlsbad, California, USA). IC50 is defined as the concentration of the compound that causes 50% reduction in the fluorescence intensity indicating 50% viable cells. IC50 values were determined from the results of at least two independent tests and Mean ± S.E.M was calculated from the inhibition curve using GraphPad Prism 5.

[3] = tested on: HEK (Human Embryonic Kidney cell line); assay: Cytotoxicity by REMA in HEK; assay type: cell-based; conditions: 1-200 µg/ml; for IC50: Homo sapiens, read-out: Inhibition in HEK (IC50 in µg/ml)
Experimental: as §1

[4] = tested on: MDCK (Madine darby canine kidney cell line); assay: Cytotoxicity by REMA in MDCK; assay type: cell-based; conditions: 1-200 µg/ml; for IC50: Canis lupus familiaris, MDCK, read-out: Inhibition in MDCK (IC50 in µg/ml)
Experimental: as §1

[5] = tested on: HepG2 (Human hepatocellular carcinoma cell line); assay: Cytotoxicity by REMA in HepG2; assay type: cell-based; conditions: for IC50: Homo sapiens, HepG2, 1-200 µg/ml, read-out: Inhibition in HepG2 (IC50 in µg/ml); for Inhibition in HepG2 (IC50 in µg/ml): 1-200 µg/ml
Experimental: as §1

[6] = tested on: intracellular M. tuberculosis H37Rv; assay: Inhibition of intracellular M. tuberculosis in PMA activated THP-1 cells, spotting on agar plates; assay type: cell-based, Mycobacterium tuberculosis
IdeR [7] = target: T1, IdeR; assay: EMSA competition experiments with increasing labeled DNA; assay type: biochemical; conditions: DNA 0.8 pmoles to 12.8 pmoles
IdeR [8] = target: T1, IdeR; assay: EMSA with Fe2+ instead of Ni2+: effect of iron on inhibition; assay type: biochemical; conditions: 100 µM Fe2+, 100 µg/ml compound
IdeR [9] = target: T2, IdeR (Mycobacterium tuberculosis, UniProt P9WMH1 1-230); assay: EMSA; conditions: protein: recombinant; tags: vector pET28c NdeI/HindIII (His-tag, Ni-NTA purified); C-terminal streptactin tag from reverse primer; chain copies: 4; label: Cy5 at 5' end of both strands; blunt (only sense strand printed)
T2 sequence: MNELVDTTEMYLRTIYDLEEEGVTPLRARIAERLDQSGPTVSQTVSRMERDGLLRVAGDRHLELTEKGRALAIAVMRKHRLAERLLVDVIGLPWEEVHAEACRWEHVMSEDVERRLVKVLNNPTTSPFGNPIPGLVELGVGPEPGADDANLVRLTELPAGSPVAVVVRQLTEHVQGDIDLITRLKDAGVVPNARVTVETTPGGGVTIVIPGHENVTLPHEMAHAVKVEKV

[10] = 0.35 µg IdeR, 0.8 picomoles labeled DNA, 200 µM NiSO4, inhibitor 0.4-100 µg/ml, read-out: IC50 (µg/ml) (converted)
[11] = same values given in µM, read-out: IC50
[12] = at 500 μg/ml (highest concentration tested), infected THP-1, 5 days
[13] = at concentrations lower than 500 μg/ml (100 to 400 μg/ml), infected THP-1
[14] = 0.35 µg IdeR, 0.8 picomoles labeled DNA, 200 µM NiSO4, inhibitor 0.4-100 µg/ml

Cc1nn(-c2ccccc2)c2c1N=C(C(=O)O)CC(c1ccccc1)=N2 [Compound I-33, 3-methyl-1,7-diphenyl-1,6-dihydropyrazolo[3,4-b][1,4]diazepine-5-carboxylic acid]
IC50 (IdeR [1]; [10]): 63 µM and 63.1 µM
IC50 (IdeR [1]; [11]): 63 µM
MIC90 of compounds against M. tuberculosis (M. tuberculosis): 93 µg/mL and 93.3 ± 8.16 µg/mL
MIC90 (M. tuberculosis): 93.3 µg/mL (≈ 271 µM)
IC50 [2]: > 200 µg/mL
IC50 [3]: > 200 µg/mL
IC50 [4]: > 200 µg/mL
IC50 [5]: > 200 µg/mL
growth of intracellular M. tuberculosis on agar plates [6, 12]: negligible inhibition
growth of intracellular M. tuberculosis on agar plates [6, 13]: unaffected

CO[C@H]1/C=C/O[C@@]2(C)Oc3c(C)c(O)c4c(O)c(c(/C=N/N5CCN(C)CC5)c(O)c4c3C2=O)NC(=O)/C(C)=C\C=C\[C@H](C)[C@H](O)[C@@H](C)[C@@H](O)[C@@H](C)[C@H](OC(C)=O)[C@@H]1C [Rifampicin, reference compound]
MIC90 (M. tuberculosis): 0.05 to 0.2 µg/mL (≈ 0.0608 to 0.243 µM)
IC50 [2]: > 100 µg/mL
IC50 [3]: > 100 µg/mL
IC50 [4]: > 100 µg/mL
IC50 [5]: > 100 µg/mL

CC(NCc1c(O)ccc2ccc(=O)oc12)C(=O)O (centres unmarked) [Compound I-39]
IC50 (IdeR [1]; [10]): 53.9 µM
IC50 (IdeR [1]; [11]): 54 µM
mode of inhibition in competition with DNA (IdeR [7]): competing with DNA

O=S(=O)(O)c1ccc(O)c(N=Nc2c(O)ccc3ccccc23)c1 [Compound I-42, Benzene sulfonic acid,4-hydroxy-3-[(2-hydroxy-1-naphthalenyl)azo]-monosodium salt]
IC50 (IdeR [1]; [10]): ≤ 72.6 µM and 2.9 µM
IC50 (IdeR [1]; [11]): 2.72 µM
mode of inhibition in competition with DNA (IdeR [7]): competing with DNA
effect of iron on the inhibitory potential (IdeR [8]): no effect

O=C(O)C1(Cc2ccc(O)c(O)c2)NCCS1 (centres unmarked) [Compound I-20, 2-(3,4-dihydroxybenzyl)-1,3-thiazolidine-2-carboxylic acid]
IC50 (IdeR [1]; [10]): 9.56 µM
IC50 (IdeR [1]; [11]): 9.56 µM
mode of inhibition in competition with DNA (IdeR [7]): competing with DNA
effect of iron on the inhibitory potential (IdeR [8]): no effect

Cc1ccc(C2=Nc3c(c(C)nn3-c3ccccc3)N=C(C(=O)O)C2)cc1 [Compound I-34, 3-methyl-7-(4-methylphenyl)-1-phenyl-1,6-dihydropyrazolo[3,4-b][1,4]diazepine-5-carboxylic acid]
IC50 (IdeR [1]; [10]): ≤ 69.8 µM and 17 µM and 16.7 µM
IC50 (IdeR [1]; [11]): 17 µM
mode of inhibition in competition with DNA (IdeR [7]): competing with DNA
effect of iron on the inhibitory potential (IdeR [8]): no effect
MIC90 of compounds against M. tuberculosis (M. tuberculosis): 86 µg/mL and 86.6 ± 7.8 µg/mL
MIC90 (M. tuberculosis): 86.6 µg/mL (≈ 242 µM)
IC50 [2]: > 200 µg/mL
IC50 [3]: > 200 µg/mL
IC50 [4]: > 200 µg/mL
IC50 [5]: > 200 µg/mL
growth of intracellular M. tuberculosis on agar plates [6, 12]: negligible inhibition; also recorded: unable to limit the growth of intracellular bacteria
growth of intracellular M. tuberculosis on agar plates [6, 13]: unaffected

Oc1ccc(/C=N\c2ccccc2/N=C\c2ccc(O)c(O)c2)cc1O [Compound I-103, 4,4`-{benzene-1,2-diylbis[nitrilo(Z)methylylidene]}dibenzene-1,2-diol]
IC50 (IdeR [1]; [10]): 95.6 µM
IC50 (IdeR [1]; [11]): 95.6 µM

O=C1OC(C=Cc2ccccc2)=NC1=Cc1cccc([N+](=O)[O-])c1 [Compound I-18, 4-(3-nitrobenzylidene)-2-[2-phenylethenyl]-1,3-oxazol5(4H)-one]
IC50 (IdeR [1]; [10]): 43.7 µM
IC50 (IdeR [1]; [11]): 43.7 µM

Nc1ccc(-c2nc3ccccc3s2)cc1 [IS-54, 4-(1,3-benzothiazol-2-yl)aniline]
IC50 (IdeR [1]; [10]): 49.5 µM
IC50 (IdeR [1]; [11]): 49.6 µM
MIC90 of compounds against M. tuberculosis (M. tuberculosis): 84.8 ± 8 µg/mL
MIC90 (M. tuberculosis): 84.8 µg/mL (≈ 375 µM)
Inhibition in THP1 (IC50 in µg/ml) [2]: slight toxicity
IC50 [2]: 182 ± 5.2 µg/mL (≈ 802 µM)
Inhibition in HEK (IC50 in µg/ml) [3]: slight toxicity
IC50 [3]: 161 ± 4.22 µg/mL (≈ 712 µM)
Inhibition in MDCK (IC50 in µg/ml) [4]: slight toxicity
IC50 [4]: 174 ± 6.4 µg/mL (≈ 770 µM)
Inhibition in HepG2 (IC50 in µg/ml) [5]: slight toxicity
IC50 [5]: 167 ± 3.78 µg/mL (≈ 740 µM)

Nc1ccc(-c2nc3ccccc3s2)cc1S(=O)(=O)O [Compound I-8, 2amino-5-(1,3-benzothiazol-2-yl) benzene sulfonic acid ammoniate]
IC50 (IdeR [1]; [10]): ≤ 81.6 µM and 78 µM
IC50 (IdeR [1]; [11]): 74 µM
mode of inhibition in competition with DNA (IdeR [7]): competing with DNA
MIC90 of compounds against M. tuberculosis (µg/ml) (M. tuberculosis): no inhibition

4-oxo-3-({4-[-(4-sulfophenyl)diazenyl]phenyl}hydrazono)-3,4-dihydro-1-naphtalenesulfonic acid [IS-7]
IC50 (IdeR [1]; [14]): 32.13 ± 1.56 µg/mL
IC50 (IdeR [1]; [11]): 57.5 µM

NC(CC(=O)O)C(=O)OCc1cccc(/N=N/c2ccccc2)c1 (centres unmarked) [Compound I-21]
IC50 (IdeR [1]; [10]): 16.7 µM
IC50 (IdeR [1]; [11]): 16.8 µM
mode of inhibition in competition with DNA (IdeR [7]): competing with DNA

O=C1N[C@H]2CCCC[C@@H]2C(=O)N1OS(=O)(=O)c1ccccc1 [Compound I-91, (4As,8As)-3-[(phenylsulfonyl)oxy]hexahydroquinazoline-2,4(1H,3H)-dione]
IC50 (IdeR [1]; [10]): 231 µM
IC50 (IdeR [1]; [11]): 231 µM

Cc1ccccc1NC(=O)Nc1cccc(-c2nnc(Cc3ccc4c(c3)OCO4)o2)c1 [IA8, 3-[3-[5-(1,3-benzodioxol-5-ylmethyl)-1,3,4-oxadiazol-2-yl]phenyl]-1-(o-tolyl) urea]
IC50 (IdeR [1]; [10]): 143 µM

Cc1cc(=O)oc2c(CNC(C(=O)O)C(C)O)c(O)ccc12 (centres unmarked) [IS-40, 3-hydroxy-2-{[(7-hydroxy-4-methyl-2-oxo-2H-chromen-8-yl)methyl]amino}butanoic acid]
IC50 (IdeR [1]; [10]): 269 µM
IC50 (IdeR [1]; [11]): 275 µM

Cc1ccc(S(=O)(=O)C2CC(=O)N(c3ccc(F)c(Cl)c3)C2=O)cc1 (centres unmarked) [Compound I-108, 1-(3-chloro-4-fluorophenyl)-3-[(4-methylphenyl)sulfonyl]pyrrolidine-2,5-dione]
IC50 (IdeR [1]; [10]): 62.9 µM and 63.6 µM
IC50 (IdeR [1]; [11]): 63.6 µM
MIC90 of compounds against M. tuberculosis (M. tuberculosis): 17.5 ± 3.06 µg/mL
MIC90 (M. tuberculosis): 17.5 µg/mL (≈ 45.8 µM)
Inhibition in THP1 (IC50 in µg/ml) [2]: slight toxicity
IC50 [2]: 168 ± 5.6 µg/mL (≈ 439 µM)
IC50 [3]: > 200 µg/mL
IC50 [4]: > 200 µg/mL
IC50 [5]: > 200 µg/mL
growth of intracellular M. tuberculosis on agar plates ([6]; at 150 μg/ml and 125 μg/ml, infected THP-1, 5 days): only a few pin pointed colonies; also recorded: pin point colonies; also recorded: able to limit the growth of intracellular bacteria
growth of intracellular M. tuberculosis on agar plates ([6]; at lower concentrations (100 to 25 μg/ml), infected THP-1, 5 days): prominent growth of bacilli

O=S(=O)(O)c1ccc(O)c(/N=N/c2ccc(O)cc2O)c1 [IS-12, Benzene sulfonic acid, 3-[(2,4-dihydroxyphenyl)azo]-4-hydroxy]
IC50 (IdeR [1]; [10]): 15.1 µM
IC50 (IdeR [1]; [11]): 15.2 µM

Cc1cc(=O)oc2c(CNC(C)C(=O)O)cc(O)cc12 (centres unmarked) [Compound I-38]
IC50 (IdeR [1]; [14]): 100 ± 3.176 µg/mL
IC50 (IdeR [1]; [11]): 361 µM

COc1ccc(-c2nc3ccccc3s2)cc1S(=O)(=O)O [IS-4, 5-(1,3-benzothiazol-2-yl)-2-methoxybenzenesulfonic acid]
IC50 (IdeR [1]; [10]): 45.1 µM
IC50 (IdeR [1]; [11]): 42.1 µM
MIC90 (M. tuberculosis): 100 µg/mL (≈ 311 µM)
Inhibition in THP1 (IC50 in µg/ml) [2]: slight toxicity
IC50 [2]: 166 ± 3.72 µg/mL (≈ 516 µM)
Inhibition in HEK (IC50 in µg/ml) [3]: slight toxicity
IC50 [3]: 164.7 ± 1.24 µg/mL (≈ 512 µM)
Inhibition in MDCK (IC50 in µg/ml) [4]: slight toxicity
IC50 [4]: 173 ± 2.3 µg/mL (≈ 538 µM)
Inhibition in HepG2 (IC50 in µg/ml) [5]: slight toxicity
IC50 [5]: 176.3 ± 1.6 µg/mL (≈ 549 µM)

B1: mbtA-mbtB intergenic IdeR binding region oligo (dsDNA)
DNA 1: CCCTGTTAGCACAGGCTGCCCTAATTTTAGTG
DNA 2: CACTAAAATTAGGGCAGCCTGTGCTAACAGGG
binding result (IdeR [9]): binds

Reference: publication PMC5498548
